Data from patent US10322097B2, “Treatment of subjects with multidrug-resistant cancer” (priority 2015, dated 2019).

Tests used:
[1] = tested on: A549 taxol-resistant lung cancer cells; test: Annexin V flow cytometry analysis of cell death; type: cell-based, human; settings: 24 h
Protocol: Annexin V flow cytometry analysis has been carried out. Cell death and viability were measured using an Annexin V staining kit (BD Biosciences, San Jose, Calif., USA).
Briefly, A549 taxol-resistant cancer cells were treated with 0.1-0.5 μM celastrol with or without 40 μM of taxol for 24 h. Cells were then harvested and analysed by multiparametric flow cytometry using FITC-Annexin V and propidium iodide staining (BD Biosciences, San Jose, Calif., USA) according to the manufacturer's instructions. Flow cytometry was then carried out using a FACSCalibur flow cytometer (BD Biosciences, San Jose, Calif., USA). Data acquisition and analysis was performed with CellQuest (BD Biosciences, San Jose, Calif., USA). Data were obtained from three independent experiments.

[2] = tested on: DLD-1 Bax-Bak-/- colon cancer cells; test: MTT cytotoxicity assay, DLD-1 Bax-Bak-/-; type: cell-based
Protocol: Cell cultures and cytotoxicity assays have been used. Celastrol was dissolved in DMSO at a final concentration of 100 mmol/L and stored at −20° C. Cytotoxicity was assessed using the 3-(4,5-dimethylthiazol-2-yl)-2,5-diphenyltetrazolium bromide assay. 4000 cells from HCT116 p53^+/+ or p53^−/− colon cancer cells and DLD-1 Bax-Bak^+/+ or Bax-Bak^−/− colon cancer cells were seeded on 96-well plates per well. […] Subsequently, 10 μL of MTT reagents were added to each well and incubated at 37° C. for 4 hours followed by the addition of 100 μL solubilization buffer (10% SDS in 0.01 mol/L HCl) and overnight incubation. […] The percentage of cell viability was calculated using the following formula: Cell viability (%)=Cells number treated/Cells number DMSO control×100. Data were obtained from three independent experiments.

[3] = tested on: MCF-7 (Breast) taxol resistant cancer cells; test: MTT cytotoxicity assay, MCF-7 taxol resistant; type: cell-based, human
Protocol: (§1) Cell cultures and cytotoxicity assays have been used. Celastrol was dissolved in DMSO at a final concentration of 100 mmol/L and stored at −20° C. Cytotoxicity was assessed using the 3-(4,5-dimethylthiazol-2-yl)-2,5-diphenyltetrazolium bromide assay. 4000 cells from A549 (lung), A2780 (ovary), HCT-8 (colon) and MCF-7 (breast) cancer cells were seeded on 96-well plates per well. After overnight pre-incubation, the cells were exposed to different concentrations of celastrol (0.039-100 μmol/L) or taxol for 3 days. Subsequently, 10 μL of MTT reagents was added to each well and incubated at 37° C. for 4 hours followed by the addition of 100 μL solubilization buffer (10% SDS in 0.01 mol/L HCl) and overnight incubation. Absorbance at 585 nm was determined from each well the next day. The percentage of cell viability was calculated using the following formula: Cell viability (%)=Cells number treated/Cells number DMSO control×100. Data were obtained from three independent experiments.

[4] = tested on: CEM-ADR5000 (Leukemia) doxorubicin resistant cells; test: MTT cytotoxicity assay, CEM-ADR5000; type: cell-based, human
Protocol: as §1, with “from” for “from A549 (lung), A2780 (ovary), HCT-8 (colon) and”, “MCF-7 doxorubicin sensitive/resistant breast” for “MCF-7 (breast)”, “cancer cells or CEM doxorubicin sensitive/resistant leukemia” for “cancer”, “or doxorubicin” for “or taxol”, “reagents were” for “reagents was”

[5] = tested on: A2780 (Ovary) cisplatin sensitive cancer cells; test: MTT cytotoxicity assay, A2780 cisplatin sensitive; type: cell-based, human; settings: Homo sapiens, A2780, 72 h, read-out: IC50 A2780 (Ovary) (Cisplatin sensitive)
Protocol: as §1, with “from” for “from A549 (lung),”, “A2780 cisplatin sensitive/resistant ovarian cancer cells or SGC-7901 cisplatin sensitive/resistant gastric” for “A2780 (ovary), HCT-8 (colon) and MCF-7 (breast)”, “or cisplatin” for “or taxol”, “reagents were” for “reagents was”

`CC1=C(O)C(=O)C=C2C1=CC=C1[C@@]2(C)CC[C@@]2(C)[C@@H]3C[C@](C)(C(=O)O)CC[C@]3(C)CC[C@]12C` [Celastrol, celastrol] was tested, and the “cytotoxicity (cell death, Annexin V)” value ([1]; 0.1-0.5 μM celastrol alone) was “limited cytotoxicity”, the “taxol-mediated cytotoxicity (cell death, Annexin V) on co-treatment” value ([1]; 0.1-0.5 μM celastrol with 40 μM taxol) was “significantly enhanced” and the IC50 ([2]; Homo sapiens, DLD-1, 72 h, read-out: IC50 DLD-1 Bax-Bak-/- colon cancer cells) was 184 nM. The “Resistant Factor” value ([2]; IC50 DLD-1 Bax-Bak-/- divided by IC50 DLD-1 Bax-Bak+/+) was 0.32, the IC50 ([3]; Homo sapiens, MCF7, 72 h, read-out: IC50 MCF-7 (Breast) (Taxol resistant)) was 730 nM and the “Resistant Factor” value ([3]; MCF-7 taxol resistant versus taxol sensitive) was 0.65. For the same molecule, the “Resistant Factor” value ([4]; CEM-ADR5000 versus CCRF-CEM) was 0.033, the IC50 ([4]; Homo sapiens, 72 h, MTT, 3 days) was 108 nM and the IC50 [5] was 525 nM.
